Experiments:
Hepatotoxicity [1] = assay: Literature-mined compound from Fourches et al multi-species drug-induced liver injury (DILI) dataset, effect in humans; settings: human
Hepatotoxicity [2] = assay: Literature-mined compound from Fourches et al multi-species drug-induced liver injury (DILI) dataset, effect in non-rodents
Hepatotoxicity [3] = assay: Literature-mined compound from Fourches et al multi-species drug-induced liver injury (DILI) dataset, effect in rodents; settings: rodentia

SMILES	Hepatotoxicity (Hepatotoxicity [1])	Hepatotoxicity (Hepatotoxicity [2])	Hepatotoxicity (Hepatotoxicity [3])	Hepatotoxicity (Hepatotoxicity [1]; Liver)	Hepatotoxicity (Hepatotoxicity [2]; Liver)	Hepatotoxicity (Hepatotoxicity [3]; Liver)
CO[C@]12C[C@@H](COC(=O)c3cncc(Br)c3)CN(C)[C@@H]1Cc1cn(C)c3cccc2c13 [NICERGOLINE]	no drug-induced liver injury reported	no drug-induced liver injury reported	drug-induced liver injury reported	–	–	–
O=C(OCC(COC(=O)c1cccnc1)(COC(=O)c1cccnc1)COC(=O)c1cccnc1)c1cccnc1 [NICERITROL]	no drug-induced liver injury reported	drug-induced liver injury reported	no drug-induced liver injury reported	–	–	–
O=C(NCCO[N+](=O)[O-])c1cccnc1 [NICORANDIL]	no drug-induced liver injury reported	no drug-induced liver injury reported	drug-induced liver injury reported	–	–	–
CN1CCC[C@H]1c1cccnc1 [NICOTINE]	–	–	–	drug-induced liver injury reported	no drug-induced liver injury reported	drug-induced liver injury reported
COC(=O)C1=C(C)NC(C)=C(C(=O)OC)C1c1ccccc1[N+](=O)[O-] [NIFEDIPINE]	drug-induced liver injury reported	drug-induced liver injury reported	drug-induced liver injury reported	–	–	–
O=C(O)c1cccnc1Nc1cccc(C(F)(F)F)c1 [NIFLUMIC ACID]	no drug-induced liver injury reported	no drug-induced liver injury reported	drug-induced liver injury reported	–	–	–
CC1CS(=O)(=O)CCN1/N=C/c1ccc([N+](=O)[O-])o1 (stereo unspecified) [NIFURTIMOX]	–	–	–	no drug-induced liver injury reported	no drug-induced liver injury reported	drug-induced liver injury reported
O=C1CN(/N=C/c2ccc([N+](=O)[O-])o2)C(=O)N1CO [NIFURTOINOL]	drug-induced liver injury reported	no drug-induced liver injury reported	no drug-induced liver injury reported	–	–	–
CC1(C)NC(=O)N(c2ccc([N+](=O)[O-])c(C(F)(F)F)c2)C1=O [NILUTAMIDE]	–	–	–	drug-induced liver injury reported	no drug-induced liver injury reported	drug-induced liver injury reported
COCCOC(=O)C1=C(C)NC(C)=C(C(=O)OC(C)C)C1c1cccc([N+](=O)[O-])c1 (stereo unspecified) [NIMODIPINE]	drug-induced liver injury reported	no drug-induced liver injury reported	drug-induced liver injury reported	–	–	–
O=C1NCCN1c1ncc([N+](=O)[O-])s1 [NIRIDAZOLE]	no drug-induced liver injury reported	no drug-induced liver injury reported	drug-induced liver injury reported	–	–	–
COC(=O)C1=C(C)NC(C)=C(C(=O)OCC(C)C)C1c1ccccc1[N+](=O)[O-] (stereo unspecified) [NISOLDIPINE]	drug-induced liver injury reported	drug-induced liver injury reported	drug-induced liver injury reported	–	–	–
O=C1CCCC(=O)C1C(=O)c1ccc(C(F)(F)F)cc1[N+](=O)[O-] [NITISINONE]	no drug-induced liver injury reported	drug-induced liver injury reported	drug-induced liver injury reported	–	–	–
O=C1CN=C(c2ccccc2)c2cc([N+](=O)[O-])ccc2N1 [NITRAZEPAM]	no drug-induced liver injury reported	no drug-induced liver injury reported	drug-induced liver injury reported	–	–	–
CCOC(=O)C1=C(C)NC(C)=C(C(=O)OC)C1c1cccc([N+](=O)[O-])c1 (stereo unspecified) [NITRENDIPINE]	drug-induced liver injury reported	no drug-induced liver injury reported	drug-induced liver injury reported	–	–	–
O=C1CN(/N=C/c2ccc([N+](=O)[O-])o2)C(=O)N1 [NITROFURANTOIN]	–	–	–	drug-induced liver injury reported	drug-induced liver injury reported	drug-induced liver injury reported
NC(=O)N/N=C/c1ccc([N+](=O)[O-])o1 [NITROFURAZONE]	no drug-induced liver injury reported	no drug-induced liver injury reported	drug-induced liver injury reported	–	–	–
O=[N+]([O-])OCC(CO[N+](=O)[O-])O[N+](=O)[O-] [NITROGLYCERIN]	drug-induced liver injury reported	no drug-induced liver injury reported	drug-induced liver injury reported	–	–	–
CNC(=C[N+](=O)[O-])NCCSCc1csc(CN(C)C)n1 [NIZATIDINE]	drug-induced liver injury reported	no drug-induced liver injury reported	drug-induced liver injury reported	–	–	–

SMILES	Hepatotoxicity (Hepatotoxicity [1])	Hepatotoxicity (Hepatotoxicity [2])	Hepatotoxicity (Hepatotoxicity [3])	Hepatotoxicity (Hepatotoxicity [1]; Liver)	Hepatotoxicity (Hepatotoxicity [2]; Liver)	Hepatotoxicity (Hepatotoxicity [3]; Liver)
CC(Cc1ccc(O)c(O)c1)C(C)Cc1ccc(O)c(O)c1 (stereo unspecified) [NORDIHYDROGUAIARETIC ACID]	drug-induced liver injury reported	no drug-induced liver injury reported	drug-induced liver injury reported	–	–	–
NC[C@H](O)c1ccc(O)c(O)c1 [NOREPINEPHRINE]	drug-induced liver injury reported	drug-induced liver injury reported	drug-induced liver injury reported	–	–	–
C#C[C@]1(OC(C)=O)CC[C@H]2[C@@H]3CCC4=CC(=O)CC[C@@H]4[C@H]3CC[C@@]21C [NORETHINDRONE ACETATE]	no drug-induced liver injury reported	drug-induced liver injury reported	drug-induced liver injury reported	–	–	–
CCn1cc(C(=O)O)c(=O)c2cc(F)c(N3CCNCC3)cc21 [NORFLOXACIN]	–	–	–	drug-induced liver injury reported	no drug-induced liver injury reported	drug-induced liver injury reported
C#CC1(O)CC[C@H]2[C@@H]3CCC4=CC(=O)CC[C@@H]4[C@H]3CC[C@@]21CC (stereo partly specified) [NORGESTREL]	–	–	–	drug-induced liver injury reported	no drug-induced liver injury reported	drug-induced liver injury reported
CNCCC=C1c2ccccc2CCc2ccccc21 [NORTRIPTYLINE]	–	–	–	drug-induced liver injury reported	no drug-induced liver injury reported	no drug-induced liver injury reported
COc1ccc2c(c1OC)C(=O)O[C@@H]2[C@H]1c2c(cc3c(c2OC)OCO3)CCN1C [NOSCAPINE]	no drug-induced liver injury reported	no drug-induced liver injury reported	drug-induced liver injury reported	–	–	–
CO[C@@H]1[C@@H](OC(N)=O)[C@@H](O)[C@H](Oc2ccc3c(O)c(NC(=O)c4ccc(O)c(CC=C(C)C)c4)c(=O)oc3c2C)OC1(C)C [NOVOBIOCIN]	drug-induced liver injury reported	no drug-induced liver injury reported	drug-induced liver injury reported	–	–	–
CO[C@@H]1[C@H](OC(=O)NC(=O)CCl)CC[C@]2(CO2)[C@H]1[C@@]1(C)O[C@@H]1CC=C(C)C [O-CHLOROACETYLCARBAMOYLFUMAGILLOL]	no drug-induced liver injury reported	drug-induced liver injury reported	drug-induced liver injury reported	–	–	–
Cc1cc2c(s1)Nc1ccccc1N=C2N1CCN(C)CC1 [OLANZAPINE]	drug-induced liver injury reported	no drug-induced liver injury reported	no drug-induced liver injury reported	–	–	–
CCCCCCCC/C=C\CCCCCCCC(=O)O [OLEIC ACID]	no drug-induced liver injury reported	no drug-induced liver injury reported	drug-induced liver injury reported	–	–	–
CCCc1nc(C(C)(C)O)c(C(=O)OCc2oc(=O)oc2C)n1Cc1ccc(-c2ccccc2-c2nnn[nH]2)cc1 [OLMESARTAN MEDOXOMIL]	no drug-induced liver injury reported	no drug-induced liver injury reported	drug-induced liver injury reported	–	–	–
COC(=O)C[C@](O)(CCCC(C)(C)O)C(=O)O[C@@H]1C(OC)=C[C@]23CCCN2CCc2cc4c(cc2[C@H]13)OCO4 [OMACETAXINE MEPESUCCINATE]	drug-induced liver injury reported	no drug-induced liver injury reported	no drug-induced liver injury reported	–	–	–
COc1ccc2[nH]c([S+]([O-])Cc3ncc(C)c(OC)c3C)nc2c1 (stereo unspecified) [OMEPRAZOLE]	drug-induced liver injury reported	no drug-induced liver injury reported	drug-induced liver injury reported	–	–	–
Cc1nccn1CC1CCc2c(c3ccccc3n2C)C1=O (stereo unspecified) [ONDANSETRON]	drug-induced liver injury reported	no drug-induced liver injury reported	no drug-induced liver injury reported	–	–	–
Cc1[nH]c(/C=C2\C(=O)Nc3ccccc32)c(C)c1CCC(=O)O [ORANTINIB]	drug-induced liver injury reported	no drug-induced liver injury reported	no drug-induced liver injury reported	–	–	–
CCCCCCCCCCC[C@@H](C[C@@H]1OC(=O)[C@H]1CCCCCC)OC(=O)[C@H](CC(C)C)NC=O [ORLISTAT]	drug-induced liver injury reported	no drug-induced liver injury reported	no drug-induced liver injury reported	–	–	–
O=C(O)c1cc(=O)[nH]c(=O)[nH]1 [OROTIC ACID]	no drug-induced liver injury reported	no drug-induced liver injury reported	drug-induced liver injury reported	–	–	–
